Laboratory results published in PubChem BioAssay AID248 (DTP/NCI, 2004).
Several values for one entry are separate records, joined by “and”; a condition that tells them apart may be missing. Identical values can stand only once. Toxic doses and inconclusive results are not listed. No stated cut-off is given here; in the data, active means T/C of 150% or more; inactive means T/C below 125%.

System: L1210 leukemia ip in BDF1 mice, survival T/C
Assay: NCI In Vivo Anticancer Drug Screen. Data for tumor model L1210 Leukemia (intraperitoneal) in B6D2F1 (BDF1) mice
Details: endpoint: mean survival time, higher = longer survival
Procedure, shortened: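 Each compound was tested against a transplantable tumor grown in mice. The endpoint was survival, with treated animals benchmarked against vehicle controls as a simple ratio.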

[1] = dose: 100.0 mg/kg/injection, schedule: Q01DX001 (ip), vehicle: Klucel (hydroxypropylcellulose) (HPC)
[2] = dose: 100.0 mg/kg/injection, schedule: Q04DX003 (ip), vehicle: Klucel (hydroxypropylcellulose) (HPC)
[3] = dose: 200.0 mg/kg/injection, schedule: Q01DX001 (ip), vehicle: Klucel (hydroxypropylcellulose) (HPC)
[4] = dose: 200.0 mg/kg/injection, schedule: Q01DX009 (ip), vehicle: Klucel (hydroxypropylcellulose) (HPC)
[5] = dose: 200.0 mg/kg/injection, schedule: Q04DX003 (ip), vehicle: Klucel (hydroxypropylcellulose) (HPC)
[6] = dose: 400.0 mg/kg/injection, schedule: Q01DX001 (ip), vehicle: Klucel (hydroxypropylcellulose) (HPC)
[7] = dose: 400.0 mg/kg/injection, schedule: Q01DX009 (ip), vehicle: Klucel (hydroxypropylcellulose) (HPC)
[8] = dose: 400.0 mg/kg/injection, schedule: Q04DX003 (ip), vehicle: Klucel (hydroxypropylcellulose) (HPC)
[9] = dose: 100.0 mg/kg/injection, schedule: Q01DX009 (ip), vehicle: Klucel (hydroxypropylcellulose) (HPC)
[10] = dose: 100.0 mg/kg/injection, schedule: Q01DX001 (ip), vehicle: saline
[11] = dose: 100.0 mg/kg/injection, schedule: Q04DX003 (ip), vehicle: saline
[12] = dose: 200.0 mg/kg/injection, schedule: Q01DX001 (ip), vehicle: saline
[13] = dose: 400.0 mg/kg/injection, schedule: Q01DX001 (ip), vehicle: saline
[14] = dose: 100.0 mg/kg/injection, schedule: Q01DX009 (ip), vehicle: saline with Tween-80
[15] = dose: 200.0 mg/kg/injection, schedule: Q01DX009 (ip), vehicle: saline with Tween-80
[16] = dose: 100.0 mg/kg/injection, schedule: Q04DX003 (ip), vehicle: saline with Tween-80
[17] = dose: 200.0 mg/kg/injection, schedule: Q04DX003 (ip), vehicle: saline with Tween-80
[18] = dose: 400.0 mg/kg/injection, schedule: Q04DX003 (ip), vehicle: saline with Tween-80

Measured: T/C

Cc1cc(C)c(S(=O)(=O)C(=O)/C=N/N)c(C)c1
inactive: [1] 96 % of control | [2] 98 % of control | [3] 100 % of control | [4] 91 % of control | [5] 98 % of control | [6] 94 % of control | [7] 93 % of control | [8] 96 % of control

C=CCCOC(C)=O
inactive: dose: 75.0 mg/kg/injection, schedule: Q04DX003 (ip), vehicle: saline 96 % of control | [9] 107 % of control | dose: 150.0 mg/kg/injection, schedule: Q04DX003 (ip), vehicle: saline 100 % of control | [4] 97 % of control | dose: 300.0 mg/kg/injection, schedule: Q04DX003 (ip), vehicle: saline 100 % of control | [7] 100 % of control

COc1ccccc1OC1CCCCC1OS(C)(=O)=O (stereo not given)
inactive: [1] 95 % of control | [9] 95 % of control | [2] 102 % of control | [3] 105 % of control | [4] 101 % of control | [5] 101 % of control | [6] 95 % of control | [7] 95 % of control | [8] 95 % of control

CCCC(C)(CC)C(=O)O (stereo not given)
inactive: dose: 75.0 mg/kg/injection, schedule: Q01DX001 (ip), vehicle: acetone 108 % of control | dose: 150.0 mg/kg/injection, schedule: Q01DX001 (ip), vehicle: acetone 101 % of control | dose: 300.0 mg/kg/injection, schedule: Q01DX001 (ip), vehicle: acetone 98 % of control

N=C(N)C[n+]1ccccc1
inactive: [10] 98 % of control | [11] 95 % of control | [12] 109 % of control | dose: 200.0 mg/kg/injection, schedule: Q04DX003 (ip), vehicle: saline 111 % of control | [13] 104 % of control | dose: 400.0 mg/kg/injection, schedule: Q04DX003 (ip), vehicle: saline 89 % of control

C(=C1\CCc2cc3ccccc3nc21)/c1ccccc1
inactive: dose: 50.0 mg/kg/injection, schedule: Q01DX009 (ip), vehicle: saline with Tween-80 98 % of control | [14] 95 % of control | [15] 88 % of control

O=C1OC(OC(=O)c2ccccc2)C(Nc2ccccc2)=C1Br (stereo not given)
inactive: [16] 91 % of control | [17] 87 % of control | [18] 94 % of control

CC(=O)[OH2+].CC(=O)[OH2+].[O-]c1ccc2ccccc2c1CN1CCCCC1.[O-]c1ccc2ccccc2c1CN1CCCCC1.[O]=[U+2]=[O].[O]=[U+2]=[O]
inactive: dose: 5.0 mg/kg/injection, schedule: Q01DX001 (ip), vehicle: other 105 % of control | dose: 10.0 mg/kg/injection, schedule: Q01DX001 (ip), vehicle: other 111 % of control

Nc1nc(CCCCc2ccc(NC(=O)CBr)cc2)c(CCCCc2ccccc2)c(=O)[nH]1
inactive: dose: 6.25 mg/kg/injection, schedule: Q04DX003 (ip), vehicle: saline with Tween-80 96 % of control | dose: 12.5 mg/kg/injection, schedule: Q04DX003 (ip), vehicle: saline with Tween-80 105 % of control | dose: 25.0 mg/kg/injection, schedule: Q04DX003 (ip), vehicle: saline with Tween-80 102 % of control and 110 % of control | dose: 50.0 mg/kg/injection, schedule: Q01DX001 (ip), vehicle: saline 108 % of control | [16] 91 % of control

NN(C(=O)c1ccccc1)c1ccccc1
inactive: dose: 75.0 mg/kg/injection, schedule: Q01DX001 (ip), vehicle: carboxymethylcellulose (CMC) 93 % of control | dose: 150.0 mg/kg/injection, schedule: Q01DX001 (ip), vehicle: carboxymethylcellulose (CMC) 98 % of control | dose: 300.0 mg/kg/injection, schedule: Q01DX001 (ip), vehicle: carboxymethylcellulose (CMC) 95 % of control

CN=C(NC)c1ccc(NC(=NC)c2ccc(C(=NC)Nc3ccc(C(=NC)NC)cc3)cc2)cc1
inactive: dose: 0.5 mg/kg/injection, schedule: Q01DX Z (ip), vehicle: saline 96 % of control | dose: 0.8 mg/kg/injection, schedule: Q01DX Z (ip), vehicle: saline 94 % of control | dose: 1.2 mg/kg/injection, schedule: Q01DX Z (ip), vehicle: saline 100 % of control | dose: 1.7 mg/kg/injection, schedule: Q01DX Z (ip), vehicle: saline 105 % of control | dose: 1.77 mg/kg/injection, schedule: Q01DX Z (ip), vehicle: saline 98 % of control | dose: 2.66 mg/kg/injection, schedule: Q01DX Z (ip), vehicle: saline 104 % of control | dose: 4.0 mg/kg/injection, schedule: Q01DX Z (ip), vehicle: saline 89 % of control | dose: 6.0 mg/kg/injection, schedule: Q01DX Z (ip), vehicle: saline 93 % of control and 103 % of control

CCCCCCCCCCCCNC(=O)C[n+]1cccc(C(N)=O)c1
inactive: [11] 96 % of control

COC(=O)c1cc(C)n(C)c(=O)c1CNS(=O)(=O)c1ccc(C)cc1
inactive: [14] 99 % of control | [16] 97 % of control | [15] 100 % of control | [17] 105 % of control | dose: 400.0 mg/kg/injection, schedule: Q01DX009 (ip), vehicle: saline with Tween-80 99 % of control | [18] 108 % of control

CCN(CC)CCCC(C)Nc1cc(N)nc2nc(-c3cc(OC)c(OC)c(OC)c3)cnc12 (stereo not given) (tested in a mixture with another compound)
inactive: dose: 75.0 mg/kg/injection, schedule: Q01DX001 (ip), vehicle: saline 87 % of control

O=C1OC(c2ccccc2)(c2cccc3ccccc23)CC1c1ccccc1 (stereo not given)
inactive: [10] 98 % of control | [12] 98 % of control | [13] 89 % of control

Cc1ccc(S(=O)(=O)OCC(O)C(OC(=O)c2ccccc2)C(OC(=O)c2ccccc2)C(CO)OC(=O)c2ccccc2)cc1 (stereo not given)
inactive: dose: 25.0 mg/kg/injection, schedule: Q01DX001 (ip), vehicle: saline with Tween-80 92 % of control | dose: 50.0 mg/kg/injection, schedule: Q01DX001 (ip), vehicle: saline with Tween-80 95 % of control | dose: 100.0 mg/kg/injection, schedule: Q01DX001 (ip), vehicle: saline with Tween-80 88 % of control and 89 % of control

CC(=O)/C=C/c1ccc(O)cc1
inactive: [9] 98 % of control | [4] 96 % of control | [7] 100 % of control

O=Cc1ccsc1
inactive: dose: 100.0 mg/kg/injection, schedule: Q04DX002 (ip), vehicle: saline with Tween-80 90 % of control | dose: 200.0 mg/kg/injection, schedule: Q04DX002 (ip), vehicle: saline with Tween-80 97 % of control | dose: 400.0 mg/kg/injection, schedule: Q04DX002 (ip), vehicle: saline with Tween-80 101 % of control

COC(=O)c1cccc(OC)c1I
inactive: dose: 50.0 mg/kg/injection, schedule: Q04DX003 (ip), vehicle: Klucel (hydroxypropylcellulose) (HPC) 98 % of control | [2] 106 % of control | [5] 103 % of control

O=C(Nc1cccc(C(F)(F)F)c1)Nc1ncccn1
inactive: dose: 50.0 mg/kg/injection, schedule: Q01DX009 (ip), vehicle: Klucel (hydroxypropylcellulose) (HPC) 90 % of control | [9] 94 % of control and 86 % of control | [7] 89 % of control

CC(C)OC(=O)C(NC=O)C(C)(C)S (stereo not given)
inactive: [16] 93 % of control | [17] 102 % of control | [18] 97 % of control

COC1OCN(C)CC1(C)C (stereo not given)
inactive: dose: 75.0 mg/kg/injection, schedule: Q01DX009 (ip), vehicle: saline 87 % of control | [2] 105 % of control | dose: 150.0 mg/kg/injection, schedule: Q01DX009 (ip), vehicle: saline 95 % of control | [5] 102 % of control | dose: 300.0 mg/kg/injection, schedule: Q01DX009 (ip), vehicle: saline 99 % of control

O=C(O)C1=CCC=CC1
inactive: [16] 98 % of control | [17] 109 % of control | [18] 106 % of control

CCCCCOC(=S)S
inactive: dose: 9.37 mg/kg/injection, schedule: Q01DX009 (ip), vehicle: saline 100 % of control | dose: 18.75 mg/kg/injection, schedule: Q01DX009 (ip), vehicle: saline 110 % of control | dose: 37.5 mg/kg/injection, schedule: Q01DX009 (ip), vehicle: saline 98 % of control | [10] 109 % of control | [12] 103 % of control

O=C(O)CC(CO)C(c1ccccc1)c1ccccc1 (stereo not given)
inactive: dose: 100.0 mg/kg/injection, schedule: Q04DX002 (ip), vehicle: Klucel (hydroxypropylcellulose) (HPC) 97 % of control | dose: 200.0 mg/kg/injection, schedule: Q04DX002 (ip), vehicle: Klucel (hydroxypropylcellulose) (HPC) 97 % of control
